A short description of series [1]: standard LD50 test, intraperitoneal administration to mice. The note with it: mouse, in vivo, ip, read-out: LD₅₀. The procedure:
The toxicity of a representative number of compounds of the present invention was determined by using the standard LD₅₀ test.

The next series concerns HIV. The series can be described thus: in-vitro anti-HIV assay system as described in Mitsuya et al. Format: cell-based. The note with it: for effective concentration: concentration of the drug at which effects were seen (3µM to 30µM). Here is the method:
The anti-HIV activity of various compounds was tested using an in-vitro assay system as described in H Mitsuya et al; (Proc Natl. Acad.Sci. USA Vol 82 pp 7096-7100, October 1985).
From the information obtained the 50% effective dose (ED₅₀ value) was estimated and the results expressed as active (+) or very active (++).

For `CC(C)Cn1c(=O)n(C)c(=O)c2nc(-c3ccc(/C=C/C(=O)O)cc3)[nH]c21` [(E)-4-(1,2,3,6-tetrahydro-3-isobutyl-1-methyl-2,6-dioxo-9H-purin-8-yl)cinnamic acid], the LD50 in series [1] is greater than 100 mg/kg.

For the compound `CC(C)Cn1c(=O)[nH]c(=O)c2nc(-c3ccc(/C=C/C(=O)O)cc3)[nH]c21` [(E)-4-(1,2,3,6-tetrahydro-3-isobutyl-2,6-dioxo-9H-purin-8-yl)cinnamic acid], the LD50 in series [1] is greater than 100 mg/kg.

With `Cn1c(=O)[nH]c(=O)c2nc(-c3ccc(/C=C/C(=O)O)cc3)[nH]c21` [(E)-4-(1,2,3,6-tetrahydro-3-methyl-2,6-dioxo-9H-purin-8-yl)cinnamic acid], the LD50 in series [1] was greater than 500 mg/kg.

Turning to `O=C(O)/C=C/c1ccc(-c2nc3c(=O)n(Cc4ccccc4)c(=O)n(Cc4ccccc4)c3[nH]2)cc1` [(E)-4-(1,3-dibenzyl-1,2,3,6-tetrahydro-2,6-dioxo-9H-purin-8-yl)cinnamic acid], in the series on HIV, the effective concentration lay within 3 to 15 µM. In the series with HIV (statement in words), the anti-HIV activity entry is “particularly potent”.

Take `CCCCn1c(=O)c2nc(-c3ccc(/C=C/C(=O)O)cc3)[nH]c2n(CCCC)c1=O` [(E)-4-(1,3-dibutyl-1,2,3,6-tetrahydro-2,6-dioxo-9H-purin-8-yl)cinnamic acid]: the LD50 in series [1] is greater than 100 mg/kg. The effective concentration with HIV is reported as 30 µM.

As to `CCCn1c(=O)n(Cc2ccccc2)c(=O)c2nc(-c3ccc(/C=C/C(=O)O)cc3)[nH]c21` [(E)-4-(1-Benzyl-1,2,3,6-tetrahydro-2,6-dioxo-3-propyl-9H-purin-8-yl)cinnamic acid], the effective concentration in the series with HIV came out at 30 µM.

In the series on HIV, `CCCn1c(=O)c2nc(-c3ccc(/C=C/C(=O)O)cc3)[nH]c2n(Cc2ccccc2)c1=O` [(E)-4-(3-Benzyl-1,2,3,6-tetrahydro-2,6-dioxo-1-propyl-9H-purin-8-yl)cinnamic acid] returned an effective concentration of 30 µM.

On to `Cn1c(=O)c2nc(-c3ccc(/C=C/C(=O)O)cc3)[nH]c2n(Cc2ccccc2)c1=O` [(E)-4-(3-benzyl-1,2,3,6-tetrahydro-1-methyl-2,6-dioxo-9H-purin-8-yl)cinnamic acid], for which the LD50 in series [1] was greater than 100 mg/kg.

Regarding `CCCCn1c(=O)n(C)c(=O)c2nc(-c3ccc(/C=C/C(=O)O)cc3)[nH]c21` [(E)-4-(3-butyl-1,2,3,6-tetrahydro-1-methyl-2,6-dioxo-9H-purin-8-yl)cinnamic acid], the LD50 in series [1] was greater than 100 mg/kg.

The values are drawn from EP0243192B1, “Antiviral 8-Phenylxanthines” (THE WELLCOME FOUNDATION LIMITED, priority 1986, dated 1987).
